Our source for the Ki, IC50 and inhibition values is ChEMBL document CHEMBL1141885, “N1-arylsulfonyl-3-(1,2,3,6-tetrahydropyridin-4-yl)-1H-indole derivatives are potent and selective 5-HT6 receptor antagonists” (Bioorg Med Chem Lett, 2005).

Experiment [1] deals with D(3) dopamine receptor (Homo sapiens, UniProt P35462). Briefly: Binding affinity against human cloned Dopamine receptor D3 stably expressed in CHO-K1 cells using [3H]spiperone. Type of experiment: cell-based.
For experiment [2], the target named is T1, D(4) dopamine receptor (Homo sapiens, UniProt P21917).
T1 sequence (P21917 whole entry): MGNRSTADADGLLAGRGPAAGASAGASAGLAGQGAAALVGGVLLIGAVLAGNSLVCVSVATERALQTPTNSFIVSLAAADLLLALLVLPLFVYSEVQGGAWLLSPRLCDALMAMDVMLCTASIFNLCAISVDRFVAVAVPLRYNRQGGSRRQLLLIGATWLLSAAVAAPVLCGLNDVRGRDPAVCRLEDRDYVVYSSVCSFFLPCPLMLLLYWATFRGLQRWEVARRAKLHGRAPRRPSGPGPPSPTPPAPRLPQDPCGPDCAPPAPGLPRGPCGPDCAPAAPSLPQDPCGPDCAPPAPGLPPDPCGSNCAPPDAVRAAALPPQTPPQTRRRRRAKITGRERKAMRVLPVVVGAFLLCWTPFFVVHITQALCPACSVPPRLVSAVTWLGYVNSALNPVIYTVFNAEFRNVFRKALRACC
Put plainly: Binding affinity against human cloned Dopamine receptor D4 stably expressed in CHO-K1 cells using [3H]spiperone. In kind it is cell-based.

The target in experiment [3] is T2, 5-hydroxytryptamine receptor 6 (Homo sapiens, UniProt P50406). Put plainly: Binding affinity against cloned human 5-hydroxytryptamine 6 receptor expressed in HeLa cells using [3H]LSD. In kind it is cell-based.
T2 sequence (P50406 whole entry): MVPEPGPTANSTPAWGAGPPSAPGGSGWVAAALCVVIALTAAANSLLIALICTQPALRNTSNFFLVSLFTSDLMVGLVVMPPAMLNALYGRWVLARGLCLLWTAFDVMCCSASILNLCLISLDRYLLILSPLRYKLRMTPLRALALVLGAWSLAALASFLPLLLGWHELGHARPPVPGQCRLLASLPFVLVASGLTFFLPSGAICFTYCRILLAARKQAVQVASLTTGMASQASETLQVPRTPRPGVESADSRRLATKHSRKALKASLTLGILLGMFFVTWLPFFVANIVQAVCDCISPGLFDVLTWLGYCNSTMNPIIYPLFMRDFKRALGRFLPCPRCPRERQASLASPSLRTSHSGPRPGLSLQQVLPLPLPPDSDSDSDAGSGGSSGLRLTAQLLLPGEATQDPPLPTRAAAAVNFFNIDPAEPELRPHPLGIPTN
Experiment [4] deals with T2, 5-hydroxytryptamine receptor 6. Put plainly: Inhibitory concentration against 5-HT stimulated cAMP production in HeLa cells stably transfected with human 5-HT6 receptor. Type of experiment: functional, cell-based. In general terms: cAMP levels reflect the balance of adenylyl cyclase and phosphodiesterase activity.
Experiment [5] deals with 5-hydroxytryptamine receptor 1B (Homo sapiens) (UniProt P28222). Briefly: Inhibition of [3H]-5-HT binding to human cloned 5-hydroxytryptamine 1B receptor stably expressed in CHO cells at 1 uM. Type of experiment: cell-based.
Chain of 5-hydroxytryptamine receptor 1B (Homo sapiens) (P28222 whole entry): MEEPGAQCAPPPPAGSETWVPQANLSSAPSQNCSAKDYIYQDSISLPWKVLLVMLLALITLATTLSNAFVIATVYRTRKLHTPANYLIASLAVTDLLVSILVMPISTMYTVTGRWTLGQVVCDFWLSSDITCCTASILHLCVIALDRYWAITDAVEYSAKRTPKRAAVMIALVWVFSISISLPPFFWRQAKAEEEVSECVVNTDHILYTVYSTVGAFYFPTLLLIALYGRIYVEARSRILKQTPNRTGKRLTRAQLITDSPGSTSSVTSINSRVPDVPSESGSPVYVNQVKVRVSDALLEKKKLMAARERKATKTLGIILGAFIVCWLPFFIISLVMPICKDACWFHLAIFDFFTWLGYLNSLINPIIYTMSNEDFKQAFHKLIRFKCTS
The target of experiment [6] is 5-hydroxytryptamine receptor 1D (Homo sapiens) (UniProt P28221). Put plainly: Inhibition of [3H]5-HT binding to human cloned 5-hydroxytryptamine 1D receptor stably expressed in CHO cells at 1 uM. In kind it is cell-based.
Chain of 5-hydroxytryptamine receptor 1D (Homo sapiens) (P28221 whole entry): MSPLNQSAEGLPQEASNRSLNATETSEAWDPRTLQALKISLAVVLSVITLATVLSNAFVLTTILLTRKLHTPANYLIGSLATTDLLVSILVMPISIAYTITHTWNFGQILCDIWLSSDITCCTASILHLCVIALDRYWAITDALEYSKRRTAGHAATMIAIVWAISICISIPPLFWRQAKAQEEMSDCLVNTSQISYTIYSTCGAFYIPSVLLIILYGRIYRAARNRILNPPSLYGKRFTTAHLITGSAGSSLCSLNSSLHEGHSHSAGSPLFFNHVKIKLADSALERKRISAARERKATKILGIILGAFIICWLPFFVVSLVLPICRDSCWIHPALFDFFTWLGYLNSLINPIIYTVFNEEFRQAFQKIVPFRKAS
For experiment [7], the target named is T3, 5-hydroxytryptamine receptor 1F (Homo sapiens) (UniProt P30939).
T3 sequence (whole entry): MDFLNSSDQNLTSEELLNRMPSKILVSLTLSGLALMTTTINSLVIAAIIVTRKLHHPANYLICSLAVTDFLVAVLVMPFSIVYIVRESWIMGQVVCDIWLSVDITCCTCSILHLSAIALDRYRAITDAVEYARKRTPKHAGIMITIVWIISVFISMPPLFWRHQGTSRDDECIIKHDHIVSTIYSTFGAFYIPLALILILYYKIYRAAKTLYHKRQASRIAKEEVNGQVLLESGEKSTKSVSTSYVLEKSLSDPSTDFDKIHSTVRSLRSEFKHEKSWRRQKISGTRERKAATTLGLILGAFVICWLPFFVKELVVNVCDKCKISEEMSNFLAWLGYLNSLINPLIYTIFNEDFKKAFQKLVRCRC
Put plainly: Inhibition of [3H]-5-HT binding to human cloned 5-hydroxytryptamine 1F receptor stably expressed in CHO cells at 1 uM. Type of experiment: cell-based.

Experiment [8] has as its target 5-hydroxytryptamine receptor 2A (Homo sapiens, UniProt P28223). Put plainly: Binding affinity against human cloned 5-hydroxytryptamine 2A receptor stably expressed in CHO cells using [125I]DOI. Type of experiment: cell-based.
Experiment [9] addresses T4, 5-hydroxytryptamine receptor 2C (Homo sapiens, UniProt P28335).
T4 sequence (P28335 whole entry): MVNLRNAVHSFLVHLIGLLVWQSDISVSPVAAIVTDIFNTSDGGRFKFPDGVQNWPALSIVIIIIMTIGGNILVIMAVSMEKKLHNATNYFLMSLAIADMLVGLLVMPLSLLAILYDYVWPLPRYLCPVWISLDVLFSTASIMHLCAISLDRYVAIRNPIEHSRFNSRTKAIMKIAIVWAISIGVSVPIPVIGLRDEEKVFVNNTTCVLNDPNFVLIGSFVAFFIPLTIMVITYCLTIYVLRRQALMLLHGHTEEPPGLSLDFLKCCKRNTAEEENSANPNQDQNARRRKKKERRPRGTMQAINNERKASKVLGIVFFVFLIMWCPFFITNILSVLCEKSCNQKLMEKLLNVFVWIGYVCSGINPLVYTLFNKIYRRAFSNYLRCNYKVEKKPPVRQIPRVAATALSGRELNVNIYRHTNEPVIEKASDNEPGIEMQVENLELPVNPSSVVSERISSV
Put plainly: Binding affinity against human cloned 5-hydroxytryptamine 2C receptor stably expressed in CHO cells using [3H]-5-HT. Type of experiment: cell-based.

The target in experiment [10] is D(2) dopamine receptor (Homo sapiens, UniProt P14416). Put plainly: Binding affinity against human cloned Dopamine receptor D2 stably expressed in CHO-K1 cells using [3H]spiperone. Type of experiment: cell-based.
Chain of D(2) dopamine receptor (P14416 whole entry): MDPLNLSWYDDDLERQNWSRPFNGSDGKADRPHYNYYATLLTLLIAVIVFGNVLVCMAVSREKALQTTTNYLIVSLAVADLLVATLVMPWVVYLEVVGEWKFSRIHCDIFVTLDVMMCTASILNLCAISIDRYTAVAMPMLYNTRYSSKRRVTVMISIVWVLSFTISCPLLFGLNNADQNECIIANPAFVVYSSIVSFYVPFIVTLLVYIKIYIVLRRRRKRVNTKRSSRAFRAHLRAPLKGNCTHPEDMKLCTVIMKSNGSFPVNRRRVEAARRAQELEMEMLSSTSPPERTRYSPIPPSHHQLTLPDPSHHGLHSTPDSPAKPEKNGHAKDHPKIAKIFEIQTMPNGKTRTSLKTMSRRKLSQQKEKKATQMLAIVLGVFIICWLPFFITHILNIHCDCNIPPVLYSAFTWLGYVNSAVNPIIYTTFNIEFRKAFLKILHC
In experiment [11] the target is T5, 5-hydroxytryptamine receptor 1A (Homo sapiens, UniProt P08908).
T5 sequence (P08908 whole entry): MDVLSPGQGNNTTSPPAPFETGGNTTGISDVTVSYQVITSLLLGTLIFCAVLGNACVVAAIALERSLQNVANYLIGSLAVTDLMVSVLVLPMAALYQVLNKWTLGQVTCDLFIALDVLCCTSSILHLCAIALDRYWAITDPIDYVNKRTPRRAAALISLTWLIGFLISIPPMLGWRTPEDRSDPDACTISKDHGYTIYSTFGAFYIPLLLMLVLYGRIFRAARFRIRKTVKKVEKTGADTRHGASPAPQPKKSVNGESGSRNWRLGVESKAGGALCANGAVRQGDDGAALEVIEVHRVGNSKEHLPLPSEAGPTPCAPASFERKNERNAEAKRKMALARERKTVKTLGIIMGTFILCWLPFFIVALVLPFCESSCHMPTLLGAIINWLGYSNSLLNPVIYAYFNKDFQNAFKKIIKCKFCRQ
Briefly: Binding affinity against human cloned 5-hydroxytryptamine 1A receptor stably expressed in CHO cells using DPAT.

Chain of D(3) dopamine receptor (P35462 whole entry): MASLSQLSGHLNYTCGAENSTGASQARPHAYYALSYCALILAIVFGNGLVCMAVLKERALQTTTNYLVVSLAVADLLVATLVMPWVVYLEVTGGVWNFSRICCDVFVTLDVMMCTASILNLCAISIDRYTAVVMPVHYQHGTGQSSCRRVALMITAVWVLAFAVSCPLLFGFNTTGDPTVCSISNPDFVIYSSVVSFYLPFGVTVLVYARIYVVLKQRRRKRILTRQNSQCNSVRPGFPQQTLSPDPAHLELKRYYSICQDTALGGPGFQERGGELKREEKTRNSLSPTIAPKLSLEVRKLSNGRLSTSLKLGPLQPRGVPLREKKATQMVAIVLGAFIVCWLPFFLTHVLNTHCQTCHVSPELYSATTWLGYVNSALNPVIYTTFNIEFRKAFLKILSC
Chain of 5-hydroxytryptamine receptor 2A (P28223 whole entry): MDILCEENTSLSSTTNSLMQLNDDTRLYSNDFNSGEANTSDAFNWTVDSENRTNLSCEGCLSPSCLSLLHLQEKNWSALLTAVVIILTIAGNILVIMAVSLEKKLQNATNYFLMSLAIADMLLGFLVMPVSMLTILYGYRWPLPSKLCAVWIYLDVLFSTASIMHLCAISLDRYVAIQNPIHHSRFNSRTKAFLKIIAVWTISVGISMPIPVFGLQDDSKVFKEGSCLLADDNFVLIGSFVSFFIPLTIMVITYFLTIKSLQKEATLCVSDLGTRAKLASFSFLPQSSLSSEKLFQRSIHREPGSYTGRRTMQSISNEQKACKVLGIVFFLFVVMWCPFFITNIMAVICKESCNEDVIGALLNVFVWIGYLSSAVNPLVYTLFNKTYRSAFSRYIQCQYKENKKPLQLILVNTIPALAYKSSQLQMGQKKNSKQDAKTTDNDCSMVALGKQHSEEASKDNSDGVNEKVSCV

Regarding `O=S(=O)(c1ccccc1Cl)n1cc(C2=CCNCC2)c2ccccc21`, the Ki in experiment [1] was 627 nM; in [2], more than 5000 nM; in experiment [3] it was 0.4 nM; in [8] it was 599 nM; in experiment [9], 383 nM; in [10], more than 2000 nM. In addition, in experiment [11], the Ki was more than 2000 nM. In experiment [4], the midpoint of inhibition, the IC50, lay at 8.8 nM. Further, the values for the inhibition in experiment [5], in experiment [6] and in experiment [7] were 12%, 6% and 2%, respectively.

One may read the Ki as a measure of affinity in units of concentration, obtained from inhibition or displacement. One may read the IC50 as the concentration needed to halve the response being measured. In general, inhibition refers to the drop in the measured response relative to a control, in per cent. A lower inhibition goes with little suppression.
